# Values quoted from earlier work as cited in patent publication US20220347170A1, “Method of Reducing Brow Ache” (priority 2021, published 2022).
# Conditions: aceclidine alone; U.S. Pat. Nos. 9,089,562, 9,833,441 and 9,314,427
structure (smiles),measurement,value
CC(=O)OC1CN2CCC1CC2 (stereo not shown) [aceclidine],brow ache,significant brow ache
